Laboratory results taken from patent US20240166610A1, “SUBSTITUTED PYRIDAZINE PHENOL DERIVATIVES” (MEDSHINE DISCOVERY INC., priority 2021, published 2024).
Counter-ions that a name gives are not always drawn. One block for each molecule: values may come before it.

Experiments:
[1] = target: T1, NLRP3 (Homo sapiens, UniProt Q96P20); assay: Detecting IC50 of NLRP3 inhibitor by using THP-1 cells (IL-1β secretion, CBA); format: cell-based; details: PMA/LPS/ATP, IL-1β in supernatant
T1 construct: This experiment utilized the human-derived monocyte cell line THP1; endogenous in cells; host or cells: THP-1 (human monocyte line, PMA-differentiated into macrophages)
Description: 1. Experimental principle: This experiment utilized the human-derived monocyte cell line THP1 to investigate the inhibitory activity (IC50) of NLRP3 inhibitor on cellular IL-1β secretion. PMA (12-O-tetradecanoylphorbol-13-acetate) was used to differentiate the monocyte cell line THP1 into mature macrophages, which were then stimulated using LPS (lipopolysaccharide), an agonist of the Toll-like receptor TLR4, to activate the transcriptional activity of the inflammasome NLRP3 and the expression of pro-IL-1β, a precursor of IL-1β. At this time, the inhibitor of NLRP3 was added, and then ATP (adenosine triphosphate) was added to further mature and activate NLRP3, and activate downstream caspase-1. Activated caspase-1 may enzymatically process pro-IL-1β into mature IL-1β that can be secreted.
(1) The density of THP1 cells was adjusted to 5×10^5 cells/mL, then PMA was added, and the final concentration was adjusted to 100 ng/mL. The cells were inoculated 200 μL/well into a 96-well flat-bottom plate, stimulated overnight (<16 hours if possible) at 37° C. and 5% CO2.
(2) The supernatant was discarded the next day, and then the cells were carefully washed twice with Dulbecco's phosphate-buffered saline (200 μL/time).
(3) The cells were stimulated with LPS at a final concentration of 100 ng/mL, added to a 96-well plate (200 μL/well), and cultured at 37° C. and 5% CO2 for 3 hours.
The cells were incubated for 1 hour in a 37° C., 5% CO2 incubator.
(5) ATP was added to each well with a final concentration of 5 mM, and cultured overnight (>18 hours) at 37° C. and 5% CO2.
(6) On the third day, 5 μL of the supernatant was taken, diluted 10-fold, and the content of IL-1β in the supernatant was detected by cytometric bead array (CBA).

[2] = target: T2, hERG potassium ion channel (Homo sapiens, UniProt Q12809); assay: Inhibition test on hERG potassium ion channel (automated patch clamp, CHO-hERG cells); format: cell-based; details: Qpatch, highest test concentration 40.00 μM
T2 construct: expressed in transfected cells; host or cells: CHO (CHO-hERG cell line)
Method: Experimental Example 4: Inhibition Test of Compounds on hERG Potassium Ion Channel
Experimental purpose: To detect the effect of the compounds to be tested on the hERG potassium channel by an automated patch clamp method.
1.1 CHO-hERG cells were cultured in a 175 cm^2 culture flask. When the cell density reached 60 to 80%, the culture medium was removed, and the cells were washed once with 7 mL of PBS (phosphate buffered saline), and then digested with 3 mL of digestion solution.
1.2 After the digestion was completed, 7 mL of culture medium was added to neutralize, then the mixture was centrifuged, and the supernatant was aspirated, and then 5 mL of culture medium was added to re-suspend, ensuring 2 to 5×10^6/mL of cell density.
The process of single cell high impedance sealing and whole cell mode formation were all automatically completed by Qpatch instrument, after obtaining the whole cell recording mode, the cells were clamped at −80 mV, before giving a 5-second +40 mV depolarization stimulus, a 50 millisecond −50 mV prevoltage was given first, and then repolarized to −50 mV for 5 seconds, then returned to −80 mV This voltage stimulation was applied every 15 seconds and after recording for 2 minutes, extracellular fluid was recordings for 5 minutes, and then the administration process was started. The compound concentration was given from the lowest test concentration, each test concentration was given for 2.5 minutes, and 3 μM of Cisapride as the positive control compound was given after all concentrations were continuously given. At least 3 cells (n≥3) were tested at each concentration.
4.1 The mother solution of the compound was diluted with DMSO, and 10 μL of mother solution of the compound was added to 20 μL of DMSO solution, and was 3-fold diluted continuously to 6 DMSO concentrations.
4.2 4 μL of compounds with 6 DMSO concentrations were added to 396 μL of extracellular fluid, 100-fold diluted to 6 intermediate concentrations, and then 80 μL of the compounds with 6 intermediate concentrations were added to 320 μL of extracellular fluid, 5-fold diluted to the final concentration to be tested.
4.3 The highest test concentration was 40.00 μM, in a total of 6 concentrations of 40.00, 13.33, 4.44, 1.48, 0.49, and 0.16 μM respectively.
4.4 The content of DMSO in the final test concentration was not more than 0.2%, and this concentration of DMSO had no effect on hERG potassium channel.
4.5 The whole dilution process of compound preparation was completed by Bravo instrument.
The experimental data were analyzed by GraphPad Prism 5.0 software.

[3] = In vivo pharmacokinetic evaluation in SD rats; details: male, rat, plasma, dose IV/PO 1/2 mg/kg; for half-life / clearance / Vd: 1 mg/kg; for half-life: IV, read-out: Half-life T1/2 (IV) (converted); for clearance: read-out: Clearance rate CL; for Vd: read-out: Tissue distribution Vdss; for AUC(0-t): PO, read-out: Area under drug-time curve AUC0-last PO; for bioavailability: read-out: Bioavailability F; for Cmax: read-out: Peak concentration Cmax
Method: Experimental Example 3: In Vivo Pharmacokinetic Evaluation of Compounds in SD Rats
Experimental Purpose: To Test the In Vivo Pharmacokinetics of the Compounds in SD Rats
The rodent pharmacokinetic characteristics after intravenous injection and oral administration of the compounds were tested using a standard protocol. The candidate compound was prepared as a clear solution during the experiment and given to SD rats for single intravenous injection and oral administration. The vehicle for intravenous injection and oral administration was a mixed vehicle composed of 5% dimethyl sulfoxide and 95% 5% solutol. Four male SD rats were used in this project. Two SD rats were administered intravenously, and plasma samples were collected at 0.083, 0.25, 0.5, 1, 2, 4, 8, and 24 hours after administration. The other two SD rats were administered orally by gavage, and plasma samples were collected at 0.25, 0.5, 1, 2, 4, 8, and 24 hours after administration. The plasma concentration was quantitatively analyzed by LC-MS/MS analysis method, and the pharmacokinetic parameters were calculated, such as peak concentration (Cmaz), clearance rate (CL), half-life (T1/2), […] (Vdss), area under drug-time curve (AUC0-last), bioavailability (F).

[4] = In vivo pharmacokinetic evaluation in CD-1 mice; details: male, mouse, plasma; for half-life: IV, read-out: Half-life T1/2 (IV) (converted); for clearance: read-out: Clearance rate CL; for Vd: read-out: Tissue distribution Vdss; for AUC(0-t): PO, read-out: Area under drug-time curve AUC0-last PO; for bioavailability: read-out: Bioavailability F; for Cmax: read-out: Peak concentration Cmax
Method: Experimental Example 2: In Vivo Pharmacokinetic Evaluation of Compounds in CD-1 Mice
Experimental purpose: To test the in vivo pharmacokinetics of the compounds in CD-1 mice
CD-1 mice (male, 7 to 9 weeks old)
The rodent pharmacokinetic characteristics after intravenous injection and oral administration of the compounds were tested using a standard protocol. The candidate compound was prepared as a clear solution during the experiment and given to mice for single intravenous injection and oral administration. The vehicle for intravenous injection and oral administration was a mixed vehicle composed of 5% dimethyl sulfoxide and 95% 5% solutol. Four male CD-1 mice were used in this project. Two mice were administered intravenously (IV), and plasma samples were collected at 0 hours (before administration) and 0.0833, 0.25, 0.5, 1, 2, 4, 8, and 24 hours after administration. The other two mice were administered orally by gavage (PO), and plasma samples were collected at 0 hours (before administration) and 0.25, 0.5, 1, 2, 4, 8, and 24 hours after administration. The plasma concentration was quantitatively analyzed by LC-MS/MS analysis method, and the pharmacokinetic parameters were calculated, such as peak concentration (Cmax), clearance rate (CL), half-life (T1/2), […] (Vdss), area under drug-time curve (AUC0-last), bioavailability (F).

T2 sequence (Q12809 whole entry): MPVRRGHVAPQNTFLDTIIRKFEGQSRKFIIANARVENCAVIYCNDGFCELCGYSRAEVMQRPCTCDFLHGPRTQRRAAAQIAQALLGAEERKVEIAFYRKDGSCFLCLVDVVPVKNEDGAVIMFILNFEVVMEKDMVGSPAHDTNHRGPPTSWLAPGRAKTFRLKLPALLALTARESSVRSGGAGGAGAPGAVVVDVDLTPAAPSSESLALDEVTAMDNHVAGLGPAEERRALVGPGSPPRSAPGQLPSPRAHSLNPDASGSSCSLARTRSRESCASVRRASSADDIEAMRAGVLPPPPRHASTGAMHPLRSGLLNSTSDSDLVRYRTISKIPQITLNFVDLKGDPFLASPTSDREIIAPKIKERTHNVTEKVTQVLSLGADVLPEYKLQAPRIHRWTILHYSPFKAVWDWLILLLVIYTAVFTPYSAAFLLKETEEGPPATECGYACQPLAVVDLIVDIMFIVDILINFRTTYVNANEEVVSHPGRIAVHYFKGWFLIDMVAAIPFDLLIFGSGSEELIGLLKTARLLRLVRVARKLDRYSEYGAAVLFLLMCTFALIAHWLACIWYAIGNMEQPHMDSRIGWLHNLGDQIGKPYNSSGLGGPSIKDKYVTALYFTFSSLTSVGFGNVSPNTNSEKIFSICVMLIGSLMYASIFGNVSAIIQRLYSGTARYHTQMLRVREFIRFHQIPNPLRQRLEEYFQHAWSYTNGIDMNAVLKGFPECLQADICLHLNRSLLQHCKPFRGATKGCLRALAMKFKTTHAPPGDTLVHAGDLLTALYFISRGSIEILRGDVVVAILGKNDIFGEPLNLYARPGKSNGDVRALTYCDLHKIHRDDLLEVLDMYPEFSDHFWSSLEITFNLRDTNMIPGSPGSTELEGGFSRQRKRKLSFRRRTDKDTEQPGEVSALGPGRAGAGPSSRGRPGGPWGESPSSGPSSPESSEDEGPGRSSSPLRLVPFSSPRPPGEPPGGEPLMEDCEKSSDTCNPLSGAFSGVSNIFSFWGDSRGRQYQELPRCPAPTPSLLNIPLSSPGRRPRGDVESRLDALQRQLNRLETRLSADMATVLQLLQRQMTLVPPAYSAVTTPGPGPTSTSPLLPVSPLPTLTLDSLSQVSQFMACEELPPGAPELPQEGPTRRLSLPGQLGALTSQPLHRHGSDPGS
T1 sequence (Q96P20 whole entry): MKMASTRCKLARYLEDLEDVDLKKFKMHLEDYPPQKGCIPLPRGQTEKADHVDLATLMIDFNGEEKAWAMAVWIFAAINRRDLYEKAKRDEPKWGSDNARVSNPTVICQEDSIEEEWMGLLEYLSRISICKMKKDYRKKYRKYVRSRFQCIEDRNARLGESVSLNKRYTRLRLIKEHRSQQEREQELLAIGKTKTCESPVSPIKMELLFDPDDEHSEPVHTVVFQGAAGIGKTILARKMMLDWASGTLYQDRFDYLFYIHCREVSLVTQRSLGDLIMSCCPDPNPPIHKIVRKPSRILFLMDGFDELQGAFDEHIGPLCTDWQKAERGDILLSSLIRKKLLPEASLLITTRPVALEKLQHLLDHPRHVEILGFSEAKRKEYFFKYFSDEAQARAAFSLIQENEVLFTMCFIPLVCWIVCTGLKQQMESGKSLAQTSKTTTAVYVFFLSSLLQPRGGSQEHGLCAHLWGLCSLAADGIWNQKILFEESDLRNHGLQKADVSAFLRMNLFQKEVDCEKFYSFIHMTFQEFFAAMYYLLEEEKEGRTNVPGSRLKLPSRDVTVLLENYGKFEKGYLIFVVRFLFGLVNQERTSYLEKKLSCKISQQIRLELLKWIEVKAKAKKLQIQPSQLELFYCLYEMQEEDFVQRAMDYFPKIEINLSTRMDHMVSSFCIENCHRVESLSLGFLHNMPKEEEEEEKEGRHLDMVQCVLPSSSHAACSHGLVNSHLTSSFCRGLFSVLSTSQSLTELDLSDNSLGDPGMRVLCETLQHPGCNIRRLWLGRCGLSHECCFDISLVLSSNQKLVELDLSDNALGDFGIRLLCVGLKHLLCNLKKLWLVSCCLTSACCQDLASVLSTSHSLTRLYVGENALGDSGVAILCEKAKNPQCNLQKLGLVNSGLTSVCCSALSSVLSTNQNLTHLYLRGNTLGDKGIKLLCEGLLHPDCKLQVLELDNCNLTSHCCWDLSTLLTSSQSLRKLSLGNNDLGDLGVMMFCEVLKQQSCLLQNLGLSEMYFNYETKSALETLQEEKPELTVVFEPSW

SMILES: Cc1cc(NC[C@@H](C)O)nnc1-c1ccc2sccc2c1O [Hydrochloride of compound 57]
IC50 [1]: 3.37 nM | IC50 [2]: > 40000 nM

SMILES: Cc1cc(NC2CN(C)CC(F)(F)C2)nnc1-c1ccc2sccc2c1O (single isomer, unassigned) [Compound 70a]
IC50 [1]: 23.4 nM | IC50 [2]: 34200 nM

SMILES: Cc1cc(N[C@@H]2CCCN(C3COC3)C2)nnc1-c1ccc(-c2ccc(F)cc2)cc1O [Compound 21]
IC50 [1]: 62.7 nM | IC50 [2]: 10600 nM

SMILES: Cc1cc(N[C@@H]2CCCC[C@H]2O)nnc1-c1ccc2sccc2c1O [Hydrochloride of compound 60]
IC50 [1]: 0.436 nM | half-life ([4]; 2 mg/kg, dose IV/PO 2/10 mg/kg): 1.45 h | clearance ([4]; 2 mg/kg, dose IV/PO 2/10 mg/kg): 12.8 mL/min/kg | Vd ([4]; 2 mg/kg, dose IV/PO 2/10 mg/kg): 1.08 L/kg | AUC(0-t) ([4]; dose IV/PO 2/10 mg/kg): 48.1 µM·h | bioavailability ([4]; dose IV/PO 2/10 mg/kg): 147% | Cmax ([4]; dose IV/PO 2/10 mg/kg): 22.2 µM | half-life [3]: 1.08 h | clearance [3]: 10 mL/min/kg | Vd [3]: 0.402 L/kg | AUC(0-t) [3]: 6.66 µM·h | bioavailability [3]: 71.1% | Cmax [3]: 2.61 µM | IC50 [2]: > 40000 nM

SMILES: Cc1cc(NC2CN(C)CC(F)(F)C2)nnc1-c1ccc2sccc2c1O (single isomer, unassigned) [Compound 70b]
IC50 [1]: 3.33 nM | IC50 [2]: > 40000 nM

SMILES: Cc1cc(N[C@H]2COC[C@@H]2O)nnc1-c1ccc2sccc2c1O [Hydrochloride of compound 59]
IC50 [1]: 1.73 nM | IC50 [2]: > 40000 nM

SMILES: Cc1cc(N[C@H]2CN3CCC2CC3)nnc1-c1ccc2c(c1O)CCC2 [Hydrochloride of compound 7]
IC50 [1]: 5.72 nM | IC50 [2]: 37500 nM

The next lines start with results.

IC50 [1]: 0.97 nM
SMILES: Cc1cc(N[C@@H]2CCCN(CC#N)C2)nnc1-c1ccc2c(c1O)CCC2 [Compound 12a]
IC50 [2]: 31500 nM

IC50 [1]: 0.74 nM | half-life [3]: 1.12 h | clearance [3]: 10.3 mL/min/kg | Vd [3]: 0.796 L/kg | AUC(0-t) [3]: 4.69 µM·h | bioavailability [3]: 49.8% | Cmax [3]: 1.52 µM
SMILES: Cc1cc(N[C@@H]2CCCN(CC#N)C2)nnc1-c1ccc2sccc2c1O [Compound 53]
IC50 [2]: 17100 nM

IC50 [1]: 0.08 nM | half-life ([4]; 2 mg/kg, dose IV/PO 2/10 mg/kg): 3.26 h | clearance ([4]; 2 mg/kg, dose IV/PO 2/10 mg/kg): 28.7 mL/min/kg | Vd ([4]; 2 mg/kg, dose IV/PO 2/10 mg/kg): 7.03 L/kg | AUC(0-t) ([4]; dose IV/PO 2/10 mg/kg): 16 µM·h | bioavailability ([4]; dose IV/PO 2/10 mg/kg): 96.5% | Cmax ([4]; dose IV/PO 2/10 mg/kg): 4.29 µM | half-life [3]: 1.81 h | clearance [3]: 48.5 mL/min/kg | Vd [3]: 6.79 L/kg | AUC(0-t) [3]: 0.926 µM·h | bioavailability [3]: 49.7% | Cmax [3]: 0.204 µM
SMILES: Cc1cc(N[C@@H]2CCCN(C)C2)nnc1-c1ccc2sccc2c1O [Hydrochloride of compound 20]
IC50 [2]: 10300 nM

IC50 [1]: 4.7 nM | half-life ([4]; 1 mg/kg, dose IV/PO 1/2 mg/kg): 1.24 h | clearance ([4]; 1 mg/kg, dose IV/PO 1/2 mg/kg): 6.49 mL/min/kg | Vd ([4]; 1 mg/kg, dose IV/PO 1/2 mg/kg): 0.618 L/kg | AUC(0-t) ([4]; dose IV/PO 1/2 mg/kg): 10.4 µM·h | bioavailability ([4]; dose IV/PO 1/2 mg/kg): 79.9% | Cmax ([4]; dose IV/PO 1/2 mg/kg): 3.84 µM
SMILES: Cc1cc(N[C@@H]2CCCN(CC#N)C2)nnc1-c1ccc(C2CC2)cc1O [Compound 23]
IC50 [2]: > 40000 nM

IC50 [1]: 2.87 nM
SMILES: Cc1cc(N[C@@H]2CCCN(CC(F)(F)F)C2)nnc1-c1ccc2sccc2c1O [Compound 48]
IC50 at 2.5 min ([2]; human, CHO cells that express hERG (CHO-hERG)): ≥ 42600 nM

IC50 [1]: 1.55 nM
SMILES: Cc1cc(N[C@@H]2CCCN(C3COC3)C2)nnc1-c1ccc2c(c1O)CCC2 [Compound 13]
IC50 [2]: 21100 nM

IC50 [1]: 9.2 nM | half-life ([4]; 1 mg/kg, dose IV/PO 1/2 mg/kg): 1.13 h | clearance ([4]; 1 mg/kg, dose IV/PO 1/2 mg/kg): 9.56 mL/min/kg | Vd ([4]; 1 mg/kg, dose IV/PO 1/2 mg/kg): 0.718 L/kg | AUC(0-t) ([4]; dose IV/PO 1/2 mg/kg): 5.33 µM·h | bioavailability ([4]; dose IV/PO 1/2 mg/kg): 62.4% | Cmax ([4]; dose IV/PO 1/2 mg/kg): 3.22 µM
SMILES: Cc1cc(N[C@@H]2CCCN(C3COC3)C2)nnc1-c1ccc(C2CC2)cc1O [Compound 22]
IC50 [2]: > 40000 nM
